Earlier results on one sequence are cited in patent US7612060B2, “Triazoles and methods of use” (Amgen Inc., priority 2004, dated 2009).

Where no end group is shown, it is not given here.

For the data set the following is noted: reported.

Consider RPPGFSPFR [BK, Bradykinin], for which the “half-life of BK in plasma” value is “approximately 17 seconds”.
